As usually defined, the IC50 is the concentration at which inhibition is half-maximal.

Consider ten compounds from US9273043B2, “TRPV1 antagonists including dihydroxy substituent and uses thereof” (Purdue Pharma L.P., priority 2011, dated 2016).

Test [1] addresses T1, human TRPV1 (Homo sapiens (Human), UniProt Q8NER1). In words: pH-based assay, Protocol 2, TRPV1/CHO cells (hpH-CHO), Fura-2 Ca2+ influx. The test is classed as cell-based. The note with it: pH 5.0-5.1 (H2SO4), mean ± SEM.
Test [2] deals with T1, human TRPV1. In words: Human TRPV1 heat-based assay, hTRPV1/CHO cells (hHeat-CHO). The test is classed as cell-based. The conditions noted are these: temperature ramp 25 to 45 °C, mean ± SEM. As to the method: Human TRPV1 Heat-based Assay:
CHO cells stably expressing human TRPV1 (hTRPV1) were used. Functional assessment of heat-induced activation of hTRPV1 was carried out in a cell-based Ca^2+ flux assay using ABI7500 Fast Real-Time PCR System as described in Reubish et al., “Functional assessment of temperature-gated ion-channel activity using a real-time PCR machine,” www.BioTechniques.com 47(3):iii-ix (2009), which is hereby incorporated by reference. Briefly, hTRPV1/CHO cells were cultured in growth media in a tissue culture dish at 37° C. in a CO2 incubator. On the day of the assay, culture media were removed and the cells were then detached using 0.05% trypsin at 37° C. with 5% CO2, for 90 s. The detached cells were centrifuged (1000 rpm, 4 min) to remove trypsin-containing supernatant and resuspended in assay buffer (115 mM NaCl, 5.4 mM KCl, 0.8 mM MgCl2.6H2O, 1.8 mM CaCl2.2H2O, 13.8 mM D-glucose, and 20 mM HEPES). Then, the cells were loaded with 5 μM Fluo-4, a Ca^2+ reporter dye, in the presence of 2.5 mM probenecid at 37° C. with 5% CO2, for 45 min. Thereafter, the cells were washed twice with measuring buffer (assay buffer supplemented with 0.1% BSA and 3.2 mM CaCl2) then transferred to a Fast 96-well Reaction Plate (0.1 mL) (Part no. 4346907, MICROAMP, Applied Biosystems, Foster City, Calif.). The cell density was 100,000 cells/24 μL/well. A solution of the compound under test (6 μL/well) was added into each well of the 96-well plate. Thus, the reaction volume per well was 30 μL.
The plates were then placed inside an ABI7500 Fast Real-Time PCR instrument (Applied Biosystems) to read fluorescence at different temperatures using 7500 software, version 2.0.2 (Applied Biosystems). The initial temperature was set at 25° C. for 1 min. followed by a temperature ramp to 45° C. in 100 s to deliver heat to cells. [Ca^2+], response of hTRPV1/CHO cells to heat was determined as: [fluorescence read at 45° C.−fluorescence read at 25° C.].
Compound concentration response curves and IC50 values were analyzed using GraphPad Prism 4 software (GraphPad Software, La Jolla, Calif.).
The IC50 data provided in Table 6 are shown as mean±standard error of the mean; the number of trials conducted for each assay is shown in parentheses except for only a single trial where no number of trials is shown in parentheses.

T1 sequence (Q8NER1 whole entry, looked up): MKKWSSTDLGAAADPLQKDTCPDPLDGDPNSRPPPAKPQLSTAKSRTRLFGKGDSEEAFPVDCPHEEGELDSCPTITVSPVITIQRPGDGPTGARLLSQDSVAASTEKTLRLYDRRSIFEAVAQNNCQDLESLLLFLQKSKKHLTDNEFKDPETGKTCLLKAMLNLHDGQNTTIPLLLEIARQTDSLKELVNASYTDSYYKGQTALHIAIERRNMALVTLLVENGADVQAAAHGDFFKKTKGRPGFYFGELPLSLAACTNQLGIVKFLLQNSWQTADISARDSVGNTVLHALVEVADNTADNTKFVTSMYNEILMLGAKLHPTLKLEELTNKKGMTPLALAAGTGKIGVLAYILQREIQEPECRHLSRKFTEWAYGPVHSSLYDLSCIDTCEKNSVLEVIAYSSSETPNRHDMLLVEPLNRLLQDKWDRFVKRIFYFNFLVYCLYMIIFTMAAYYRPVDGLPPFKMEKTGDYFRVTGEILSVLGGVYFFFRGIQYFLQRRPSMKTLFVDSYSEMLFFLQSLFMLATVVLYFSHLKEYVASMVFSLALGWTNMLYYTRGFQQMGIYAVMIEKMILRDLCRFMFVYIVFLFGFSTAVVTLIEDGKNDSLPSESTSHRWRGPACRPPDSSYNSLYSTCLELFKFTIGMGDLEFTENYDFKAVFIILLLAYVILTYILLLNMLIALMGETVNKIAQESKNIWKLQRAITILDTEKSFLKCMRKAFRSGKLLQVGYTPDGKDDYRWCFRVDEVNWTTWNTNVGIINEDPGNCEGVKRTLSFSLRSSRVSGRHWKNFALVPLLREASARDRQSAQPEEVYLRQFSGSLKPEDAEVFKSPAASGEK

Take `C[C@H]1CN(c2ncc([C@H](O)CO)cc2F)CCN1C(=O)Nc1nc2ccccc2s1` [A122(a), (S)—N-(benzo[d]thiazol-2-yl)-4-(5-((S)-1,2-dihydroxyethyl)-3-fluoropyridin-2-yl)-2-methylpiperazine-1-carboxamide]: the IC50 in test [1] turned out to be 0.098 ± 0.027 µM.
For the compound `C[C@@H]1CN(C(=O)Nc2nc3ccc(F)cc3s2)CCN1c1ncc([C@H](O)CO)cc1F` [A125(b), (R)-4-{5-[(S)-1,2-dihydroxyethyl]-3-fluoropyridin-2-yl}-N-(6-fluorobenzo[d]thiazol-2-yl)-3-methylpiperazine-1-carboxamide], the results for the IC50 in test [2] and in test [1] were 0.389 ± 0.083 µM and 0.081 ± 0.013 µM, respectively.
For `Cc1ccc2nc(NC(=O)N3CCN(c4ncc([C@H](O)CO)cc4F)C[C@@H]3C)sc2c1` [A126(a), (S)-4-(5-((S)-1,2-dihydroxyethyl)-3-fluoropyridin-2-yl)-2-methyl-N-(6-methylbenzo[d]thiazol-2-yl)piperazine-1-carboxamide], in test [1], 0.0122 ± 0.0059 µM corresponded to half-maximal inhibition (IC50).
Take `C[C@H]1CN(c2ncc([C@H](O)CO)cc2F)CCN1C(=O)Nc1nc2cc(F)c(F)cc2s1` [A158(a), (S)—N-(5,6-difluorobenzo[d]thiazol-2-yl)-4-(5-((S)-1,2-dihydroxyethyl)-3-fluoropyridin-2-yl)-2-methylpiperazine-1-carboxamide]: the 50% inhibitory concentration (IC50) in test [1] amounted to 0.0171 µM.
`C[C@@H]1CN(C(=O)Nc2nc3cc(F)c(F)cc3s2)CCN1c1ncc([C@H](O)CO)cc1F` [AE, (R)—N-(5,6-difluorobenzo[d]thiazol-2-yl)-4-{5-[(S)-1,2-dihydroxyethyl]-3-fluoropyridin-2-yl}-3-methylpiperazine-1-carboxamide]: the IC50 in test [2] worked out at 0.1015 ± 0.0008 µM; in test [1], 0.0408 ± 0.0032 µM.
`C[C@H](O)[C@@H](O)c1cnc(N2CCN(C(=O)Nc3nc4cc(F)c(F)cc4s3)C[C@H]2C)c(F)c1` [B158(j), (R)—N-(5,6-difluorobenzo[d]thiazol-2-yl)-4-{5-[(1S,2S)-1,2-dihydroxypropyl]-3-fluoropyridin-2-yl}-3-methylpiperazine-1-carboxamide]: it took 0.136 ± 0.02 µM to reach half-maximal inhibition in test [1] (IC50).
Take `C[C@H](O)[C@@H](O)c1cnc(N2CCN(C(=O)Nc3nc4ccc(F)cc4s3)CC2)c(Cl)c1` [C4(r), 4-{3-Chloro-5-[(1S,2S)-1,2-dihydroxypropyl]pyridin-2-yl}-N-(6-fluorobenzo[d]thiazol-2-yl)piperazine-1-carboxamide]: the values for the IC50 in test [2] and in test [1] were 0.087 ± 0.013 µM and 0.0174 ± 0.0012 µM, respectively.
On to `C[C@H](O)[C@@H](O)c1cnc(N2CCN(C(=O)Nc3nc4ccc(F)cc4s3)CC2)c(F)c1` [C125(r), 4-(5-((1S,2S)-1,2-dihydroxypropyl)-3-fluoropyridin-2-yl)-N-(6-fluorobenzo[d]thiazol-2-yl)piperazine-1-carboxamide], for which the IC50 in test [2] amounted to 0.335 ± 0.04 µM; in test [1] it was 0.069 ± 0.003 µM.
In the case of `Cc1ccc2nc(NC(=O)N3CCN(c4ncc([C@H](O)[C@H](C)O)cc4F)CC3)sc2c1` [C126(r), 4-[5-((1S,2S)-1,2-Dihydroxy-propyl)-3-fluoro-pyridin-2-yl]piperazine-1-carboxylic acid (6-methyl-benzothiazol-2-yl)-amide], the IC50 in test [2] was 0.155 ± 0.025 µM; in test [1] it was 0.067 ± 0.012 µM.
`Cc1cc2nc(NC(=O)N3CCN(c4ncc([C@H](O)[C@H](C)O)cc4F)CC3)sc2cc1C` [C170(r), 4-(5-((1S,2S)-1,2-dihydroxypropyl)-3-fluoropyridin-2-yl)-N-(5,6-dimethylbenzo[d]thiazol-2-yl)piperazine-1-carboxamide]: the half-inhibitory concentration (IC50) was determined as 0.17 ± 0.02 µM in test [2] and 0.0328 ± 0.0081 µM in test [1].
